Data as given in patent US9540391B2, “Isomannide derivatives as inhibitors of soluble epoxide hydrolase” (SANOFI, priority 2013, dated 2017).
Structures can show the parent of a compound that is named as a salt.

Molecular target: T1, recombinant sEH (Homo sapiens, UniProt P34913)
T1 construct: made in house; host or cells: Sf9 insect cells
T1 sequence (P34913 1-555): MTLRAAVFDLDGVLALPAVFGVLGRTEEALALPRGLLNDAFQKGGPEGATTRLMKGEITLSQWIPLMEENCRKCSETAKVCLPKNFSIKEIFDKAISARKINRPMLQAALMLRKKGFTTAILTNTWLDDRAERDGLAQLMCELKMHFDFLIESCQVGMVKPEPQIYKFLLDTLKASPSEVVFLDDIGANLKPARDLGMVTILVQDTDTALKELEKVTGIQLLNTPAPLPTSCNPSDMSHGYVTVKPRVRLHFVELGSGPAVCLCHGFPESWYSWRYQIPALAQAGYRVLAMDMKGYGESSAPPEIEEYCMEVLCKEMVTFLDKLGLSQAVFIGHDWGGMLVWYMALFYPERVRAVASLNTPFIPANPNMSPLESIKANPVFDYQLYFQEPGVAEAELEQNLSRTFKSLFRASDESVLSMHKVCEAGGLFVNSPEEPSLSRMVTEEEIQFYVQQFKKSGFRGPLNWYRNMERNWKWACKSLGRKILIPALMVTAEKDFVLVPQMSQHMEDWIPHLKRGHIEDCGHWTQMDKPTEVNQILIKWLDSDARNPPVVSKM
Assay: biochemical screening assay for inhibition of soluble epoxide hydrolase (fluorometric, Phome substrate)
Experimental: The ability of the compounds of the formula I to inhibit soluble epoxide hydrolase can be determined as follows:
Compounds were tested in a biochemical screening assay using recombinant sEH purified from Sf9 insect cells and an artificial substrate, (3-phenyl-oxiranyl)-acetic acid cyano-(6-methoxy-naphtalen-2-yl)-methyl ester, Phome. The biochemical assay was performed in analogy to a fluorometric method described in the literature (P. D. Jones et al., Anal. Biochem. 2005, 343, 66-75). The assay principle bases on the sEH-catalyzed hydrolysis of an artificial α-cyano-ester substrate. 0-deacetylation liberates a cyanohydrin intermediate that rapidly decomposes to the highly fluorescent 6-methoxy-2-naphtaldehyde. To discriminate sample autofluorescence, the assay was carried out as a kinetic measurement with two time points. The first measurement is performed immediately before addition of the substrate and the second measurement is done after completion of the assay. The assay format is either in 96- or in 384-well format. Details of the assay using a 96-well plate format are described below. 40 μL recombinant sEH enzyme and 5 μL test compound are pre-incubated for 15 minutes at 30° C. Following pre-incubation, the reaction is started by addition of 5 μL Phome. The assay mixture containing 2 nM final sEH concentration, test compound ranging in a concentration from 0.0001-10 μM and 5 μM Phome is incubated for 60 minutes at 30° C.
Fluorescence can be measured with any suitable detector for instance a TECAN Safire or Tecan Ultra at […]. % inhibition of recombinant sEH activity is used for calculation of corresponding IC50 values as illustrated and described in the examples.
The NCBI gene bank reference sequence with the accession number NM_001979 for EPHX2/sEH was applied for recombinant protein production:
The following commercially available materials have been used: • Incubation reagent: 25 mM Hepes (Sigma-Aldrich, Cat. No H-3375), 0.01% bovine albumin (Sigma-Aldrich Cat. No PA9205) • Substrate: 3-Phenyl-oxiranyl)-acetic acid cyano-(6-methoxy-naphtalen-2-yl)-methyl ester, Phome (Biozol Cat. No 10003134) • Microtiter plates: 96-well plates (Greiner Cat. No 655180; Costar Cat. No 3915)

IC50 | SMILES
2 nM | O=C(NC1CCCCC1)N[C@H]1CO[C@H]2[C@@H]1OC[C@@H]2Oc1ccc(F)c(Cl)c1 [Example 29, 1-[(3S,3aR,6S,6aS)-6-(3-Chloro-4-fluoro-phenoxy)-hexahydro-furo[3,2-b]furan-3-yl]-3-cyclohexyl-urea]
2 nM | O=C(NC1CCCCC1)N[C@H]1CO[C@H]2[C@@H]1OC[C@@H]2Oc1cccc(-n2cnnc2)c1 [Example 30, 1-Cyclohexyl-3-[(3S,3aR,6S,6aS)-6-(3-[1,2,4]triazol-4-yl-phenoxy)-hexahydro-furo[3,2-b]furan-3-yl]-urea]
3 nM | O=C(NC1CCCCC1)N[C@H]1CO[C@H]2[C@@H]1OC[C@@H]2Oc1cc(Cl)cc(Cl)c1 [Example 31, 1-Cyclohexyl-3-[(3S,3aR,6S,6aS)-6-(3,5-dichloro-phenoxy)-hexahydro-furo[3,2-b]furan-3-yl]-urea]
3 nM | Cn1ccnc1-c1ccc(O[C@H]2CO[C@H]3[C@@H]2OC[C@@H]3NC(=O)NC2CCCCC2)cc1 [Example 32, 1-Cyclohexyl-3-{(3S,3aR,6S,6aS)-6-[4-(1-methyl-1H-imidazol-2-yl)-phenoxy]-hexahydro-furo[3,2-b]furan-3-yl}-urea]
3 nM | O=C(NC1CCCCC1)N[C@H]1CO[C@H]2[C@@H]1OC[C@@H]2Oc1cncc(Cl)c1 [Example 33, 1-[(3S,3aR,6S,6aS)-6-(5-Chloro-pyridin-3-yloxy)-hexahydro-furo[3,2-b]furan-3-yl]-3-cyclohexyl-urea]
2 nM | Cc1ccc(O[C@H]2CO[C@H]3[C@@H]2OC[C@@H]3NC(=O)NC2CCCCC2)c(C)n1 [Example 34, 1-Cyclohexyl-3-[(3S,3aR,6S,6aS)-6-(2,6-dimethyl-pyridin-3-yloxy)-hexahydro-furo[3,2-b]furan-3-yl]-urea]
12 nM | O=C(NC1CCCCC1)N[C@H]1CO[C@H]2[C@@H]1OC[C@@H]2Oc1cncc(F)c1 [Example 35, 1-Cyclohexyl-3-[(3S,3aR,6S,6aS)-6-(5-fluoro-pyridin-3-yloxy)-hexahydro-furo[3,2-b]furan-3-yl]-urea]
1 nM | Cc1cncc(O[C@H]2CO[C@H]3[C@@H]2OC[C@@H]3NC(=O)NC2CCCCC2)c1 [Example 36, 1-Cyclohexyl-3-[(3S,3aR,6S,6aS)-6-(5-methyl-pyridin-3-yloxy)-hexa-hydro-furo[3,2-b]furan-3-yl]-urea]
1 nM | Cc1ccnc(C)c1O[C@H]1CO[C@H]2[C@@H]1OC[C@@H]2NC(=O)NC1CCCCC1 [Example 37, 1-Cyclohexyl-3-[(3S,3aR,6S,6aS)-6-(2,4-dimethyl-pyridin-3-yloxy)-hexa-hydro-furo[3,2-b]furan-3-yl]-urea]
1 nM | CCc1nc(C)ccc1O[C@H]1CO[C@H]2[C@@H]1OC[C@@H]2NC(=O)NC1CCCCC1 [Example 38, 1-Cyclohexyl-3-[(3S,3aR,6S,6aS)-6-(2-ethyl-6-methyl-pyridin-3-yloxy)-hexahydro-furo[3,2-b]furan-3-yl]-urea]
2 nM | Cc1cc(C)c(O[C@H]2CO[C@H]3[C@@H]2OC[C@@H]3NC(=O)NC2CCCCC2)cn1 [Example 39, 1-Cyclohexyl-3-[(3S,3aR,6S,6aS)-6-(4,6-dimethyl-pyridin-3-yloxy)-hexa-hydro-furo[3,2-b]furan-3-yl]-urea]
11 nM | N#Cc1ncccc1O[C@H]1CO[C@H]2[C@@H]1OC[C@@H]2NC(=O)NC1CCCCC1 [Example 40, 1-[(3S,3aR,6S,6aS)-6-(2-Cyano-pyridin-3-yloxy)-hexahydro-furo[3,2-b]furan-3-yl]-3-cyclohexyl-urea]
25 nM | Cc1ncc(O[C@H]2CO[C@H]3[C@@H]2OC[C@@H]3NC(=O)NC2CCCCC2)cn1 [Example 41, 1-Cyclohexyl-3-[(3S,3aR,6S,6aS)-6-(2-methyl-pyrimidin-5-yloxy)-hexa-hydro-furo[3,2-b]furan-3-yl]-urea]
47 nM | O=C(NC1CCCCC1)N[C@H]1CO[C@H]2[C@@H]1OC[C@@H]2Oc1ccc(C(F)(F)F)nc1 [Example 42, 1-Cyclohexyl-3-[(3S,3aR,6S,6aS)-6-(6-trifluoromethyl-pyridin-3-yloxy)-hexahydro-furo[3,2-b]furan-3-yl]-urea]
86 nM | Cc1nnc(S[C@H]2CO[C@H]3[C@@H]2OC[C@@H]3NC(=O)NC2CCCCC2)o1 [Example 43, 1-Cyclohexyl-3-[(3S,3aR,6S,6aS)-6-(5-methyl-[1,3,4]oxadiazol-2-ylsulfanyl)-hexahydro-furo[3,2-b]furan-3-yl]-urea]
42 nM | O=C(NC1CCCCC1)N[C@H]1CO[C@H]2[C@@H]1OC[C@@H]2Oc1cncnc1 [Example 44, 1-Cyclohexyl-3-[(3S,3aR,6S,6aS)-6-(pyrimidin-5-yloxy)-hexahydro-furo[3,2-b]furan-3-yl]-urea]
25 nM | O=C(NC1CCCCC1)N[C@H]1CO[C@H]2[C@@H]1OC[C@@H]2SCC(F)(F)F [Example 45, 1-Cyclohexyl-3-[(3S,3aR,6S,6aS)-6-(2,2,2-trifluoro-ethylsulfanyl)-hexa-hydro-furo[3,2-b]furan-3-yl]-urea]
50 nM | O=C(NC1CCCCC1)N[C@H]1CO[C@H]2[C@@H]1OC[C@@H]2Sc1ncccn1 [Example 46, 1-Cyclohexyl-3-[(3S,3aR,6S,6aS)-6-(pyrimidin-2-ylsulfanyl)-hexahydro-furo[3,2-b]furan-3-yl]-urea]
51 nM | Cc1cc(C)nc(S[C@H]2CO[C@H]3[C@@H]2OC[C@@H]3NC(=O)NC2CCCCC2)n1 [Example 47, 1-Cyclohexyl-3-[(3S,3aR,6S,6aS)-6-(4,6-dimethyl-pyrimidin-2-ylsulfanyl)-hexahydro-furo[3,2-b]furan-3-yl]-urea]
11 nM | O=C(NC1CCCCC1)N[C@H]1CO[C@H]2[C@@H]1OC[C@@H]2Sc1ncc[nH]1 [Example 48, 1-Cyclohexyl-3-[(3S,3aR,6S,6aS)-6-(1H-imidazol-2-ylsulfanyl)-hexa-hydro-furo[3,2-b]furan-3-yl]-urea]
3 nM | O=C(NC1CCCCC1)N[C@H]1CO[C@H]2[C@@H]1OC[C@@H]2Sc1ccncn1 [Example 49, 1-Cyclohexyl-3-[(3S,3aR,6S,6aS)-6-(pyrimidin-4-ylsulfanyl)-hexahydro-furo[3,2-b]furan-3-yl]-urea; hydrochloride]
10 nM | Cc1cnc(S[C@H]2CO[C@H]3[C@@H]2OC[C@@H]3NC(=O)NC2CCCCC2)nc1 [Example 50, 1-Cyclohexyl-3-[(3S,3aR,6S,6aS)-6-(5-methyl-pyrimidin-2-ylsulfanyl)-hexahydro-furo[3,2-b]furan-3-yl]-urea; hydrochloride]
8 nM | O=C(NC1CCCCC1)N[C@H]1CO[C@H]2[C@@H]1OC[C@@H]2Oc1ccc(Cl)nc1 [Example 51, 1-[(3S,3aR,6S,6aS)-6-(6-Chloro-pyridin-3-yloxy)-hexahydro-furo[3,2-b]furan-3-yl]-3-cyclohexyl-urea]
1 nM | O=C(NC1CCCCC1)N[C@H]1CO[C@H]2[C@@H]1OC[C@@H]2Sc1ncc(Cl)cn1 [Example 52, 1-[(3S,3aR,6S,6aS)-6-(5-Chloro-pyrimidin-2-ylsulfanyl)-hexahydro-furo[3,2-b]furan-3-yl]-3-cyclohexyl-urea]
< 1 nM | Cc1cc(C)c(S[C@H]2CO[C@H]3[C@@H]2OC[C@@H]3NC(=O)NC2CCCCC2)cn1 [Example 53, 1-Cyclohexyl-3-[(3S,3aR,6S,6aS)-6-(4,6-dimethyl-pyridin-3-ylsulfanyl)-hexahydro-furo[3,2-b]furan-3-yl]-urea]
1 nM | O=C(NC1CCCCC1)N[C@H]1CO[C@H]2[C@@H]1OC[C@@H]2Sc1ccccn1 [Example 54, 1-Cyclohexyl-3-[(3S,3aR,6S,6aS)-6-(pyridin-2-ylsulfanyl)-hexahydro-furo[3,2-b]furan-3-yl]-urea]
< 1 nM | O=C(NC1CCCCC1)N[C@H]1CO[C@H]2[C@@H]1OC[C@@H]2Sc1cnccn1 [Example 55, 1-Cyclohexyl-3-[(3S,3aR,6S,6aS)-6-(pyrazin-2-ylsulfanyl)-hexahydro-furo[3,2-b]furan-3-yl]-urea]
